The series is described as follows: Determination of log P values by HPLC on a reverse phase column (C18), EEC-Directive 79/831 Annex V.A8 (Methods A, B, C). Conditions: for chromatographic logP: reverse phase C18 HPLC column. It is filed as physicochemical. The procedure:
(§1) Note on the determination of the log P values and mass detection: The stated log P values were determined in accordance with EEC-Directive 79/831 Annex V.A8 by HPLC (High Performance Liquid Chromatography) on a reverse phase column (C18). Agilent 1100 LC system; 50*4.6 Zorbax Eclipse Plus C18 1.8 micron; eluent A: acetonitrile (0.1% formic acid); eluent B: water (0.09% formic acid); linear gradient from 10% acetonitrile to 95% acetonitrile in 4.25 mins, then 95% acetonitrile for a further 1.25 mins; oven temperature 55° C.; flow rate: 2.0 mL/min. The mass detection was effected with an Agilend MSD system.
as §1, with “HP1100;” for “Agilent 1100 LC system;”, “(0.08%” for “(0.09%”, “5%” for “10%”, “1.70 min,” for “4.25 mins,”, “1.00 min;” for “1.25 mins;”, “the Micronass ZQ2000 mass detector from Waters.” for “an Agilend MSD system.”
Note on the determination of the log P values and mass detection: The stated log P values were determined in accordance with EEC-Directive 79/831 Annex V.A8 by UPLC (Ultra Performance Liquid Chromatography) on a reverse phase column (C18). HP1100; 50*2.1 Zorbax Eclipse Plus C18 1.8 micron; eluent A: acetonitrile (0.09% formic acid); eluent B: water (0.1% formic acid); linear gradient from 10% A to 95% A in 3.25 min; oven temperature 40° C.; flow rate: 0.8 mL/min. The mass detection was effected with the LCT Premier or SQD mass detector from Waters.

The mark [1] stands for this setting: Method C (HPLC, reverse phase C18).
The mark [2] stands for this setting: Method B (HPLC, reverse phase C18).
The mark [3] stands for this setting: pH 2.3, intermediates of formula [II], HPLC, reverse phase C18, read-out: LogP (pH 2.3).
[4] abbreviates: pH 2.7, values in the synthesis examples, HPLC, reverse phase C18, read-out: log P (pH 2.7).
Where [5] appears, read: pH 2.3, intermediates of formula [IV] and [XXXVII], HPLC, reverse phase C18, read-out: LogP (pH 2.3).
The mark [6] stands for this setting: pH 2.3, intermediates of formula [VI], HPLC, reverse phase C18, read-out: LogP (pH 2.3).

Read-outs that look alike come from different tables or passages of the source.

A word on the LogP: it is a log measure of how a compound divides between an organic and an aqueous phase. High values mean a more lipophilic compound, low ones a more hydrophilic compound. As to `CCC(=O)N1CCCn2nc(-c3ccc(F)cc3)c(-c3ccnc(N(C(C)=O)C(=O)CC)c3)c21` [Example 90], the LogP under setting [1] was 2.39.
For the compound `CC1(C(=O)Nc2cc(-c3c(-c4ccc(F)cc4)nn4c3OCCC4)ccn2)CC=CCC1` (stereo not shown) [Example 121], under setting [2], the log partition coefficient (LogP) is 2.38.
On the same count and under the same terms, the result for `O=C(Nc1cc(-c2c(-c3ccc(F)cc3)nn3c2OCCC3)ccn1)C1CC1(F)Cl` (stereo not shown) [Example 116] reads 2.13.
Take `Nc1cc(-c2c(-c3ccccc3)nn3cccnc23)ccn1` [[II-a-1], 4-(2-Phenylpyrazolo[1,5-a]pyrimidin-3-yl)pyridin-2-amine]: the chromatographic logP by setting is: under setting [3], 0.98; under setting [4], 0.98.
Take `CCC(=O)Nc1cc(-c2c(-c3ccccc3)nn3c2N(C(=O)CC)CCC3)ccn1` [Example 78]: under setting [1], the lipophilicity (LogP) was determined as 1.45.
As to `CC(C)(C)OC(=O)Nc1cc(-c2c(-c3ccccc3)nn3cccnc23)ccn1` [[I-i-2], tert-butyl [4-(2-phenylpyrazolo[1,5-a]pyrimidin-3-yl)pyridin-2-yl]carbamate], the chromatographic logP under setting [4] turned out to be 2.32.
Take `CC1(C)COc2c(Br)c(-c3ccc(F)cc3)nn2C1` [[IV-10], 3-bromo-2-(4-fluorophenyl)-6,6-dimethyl-6,7-dihydro-5H-pyrazolo[5,1-b][1,3]oxazine]: the chromatographic logP worked out at 3.63 under setting [5] and 3.63 under setting [4].
Consider `C[Si]1(C)COc2c(-c3ccnc(N)c3)c(-c3ccc(F)cc3)nn2C1` [[II-4], 4-[7-(4-fluorophenyl)-3,3-dimethyl-3,4-dihydro-2H-pyrazolo[5,1-b][1,3,5]oxazasilin-8-yl]pyridin-2-amine], for which the chromatographic logP under setting [3] was determined as 1.66.
As to `C[Si]1(C)COc2cc(-c3ccc(F)cc3)nn2C1` [[VI-5], 7-(4-fluorophenyl)-3,3-dimethyl-3,4-dihydro-2H-pyrazolo[5,1-b][1,3,5]oxazasiline], the chromatographic logP reads like this: under setting [6], 3.11; under setting [4], 3.11.
For the compound `CCC1(C(=O)Nc2cc(-c3c(-c4ccc(F)cc4)nn4c3OCCC4)ccn2)COC1` [Example 119], under setting [2], the LogP amounted to 1.56.
Consider `CC1(C(=O)Nc2cc(-c3c(-c4ccc(F)cc4)nn4c3OCCC4)ccn2)CCCC1` [Example 117], for which, under setting [2], the lipophilicity (LogP) is on record as 2.23.
Take `CC1CCOc2cc(-c3ccc(F)cc3)nn21` (stereo not shown) [[VI-4], 2-(4-fluorophenyl)-7-methyl-6,7-dihydro-5H-pyrazolo[5,1-b][1,3]oxazine]: the chromatographic logP is, setting by setting: under setting [6], 2.65; under setting [4], 2.65.
Turning to `CC1(C(=O)Nc2cc(-c3c(-c4ccc(F)cc4)nn4c3OCCC4)ccn2)CC1` [Example 98], the LogP under setting [2] came out at 1.79.
With `CC1(C)COc2cc(-c3ccc(F)cc3)nn2C1` [[VI-10], 2-(4-fluorophenyl)-6,6-dimethyl-6,7-dihydro-5H-pyrazolo[5,1-b][1,3]oxazine], the chromatographic logP runs as follows: under setting [6], 2.96; under setting [4], 2.96.
Regarding `CC(F)C(=O)Nc1cc(-c2c(-c3ccc(F)cc3)nn3c2OCCC3)ccn1` (stereo not shown) [Example 113, 2-fluoro-N-{4-[2-(4-fluorophenyl)-6,7-dihydro-5H-pyrazolo[5,1-b][1,3]oxazin-3-yl]pyridin-2-yl}propanamide], the chromatographic logP (Method B (HPLC, reverse phase C18), read-out: LogP) was 2 and the chromatographic logP under setting [4] was 2.
Consider `C[Si]1(C)COc2c(Br)c(-c3ccc(F)cc3)nn2C1` [[IV-5], 8-bromo-7-(4-fluorophenyl)-3,3-dimethyl-3,4-dihydro-2H-pyrazolo[5,1-b][1,3,5]oxazasiline], for which the chromatographic logP reads like this: under setting [5], 3.83; under setting [4], 3.83.
Consider `Brc1c(-c2ccccc2)nn2ccoc12` [[IV-a-4], 7-bromo-6-phenylpyrazolo[5,1-b][1,3]oxazole], for which the chromatographic logP was determined as 2.91 under setting [5] and 2.91 under setting [4].
For the compound `CC1(C#N)COc2cc(-c3ccc(F)cc3)nn2C1` (stereo not shown) [[VI-11], 2-(4-fluorophenyl)-6-methyl-6,7-dihydro-5H-pyrazolo[5,1-b][1,3]oxazine-6-carbonitrile], the chromatographic logP is, setting by setting: under setting [6], 2.39; under setting [4], 2.39.
For `CCC(C)CC(C)C(=O)Nc1cc(-c2c(-c3ccc(F)cc3)nn3c2OCCC3)ccn1` (stereo not shown) [Example 127], the LogP under setting [2] turned out to be 2.65.
Consider `Fc1ccc(-c2nn3c(c2Br)OCCC3)cc1` [[IV-2], 3-bromo-2-(4-fluorophenyl)-6,7-dihydro-5H-pyrazolo[5,1-b][1,3]oxazine], for which the chromatographic logP under setting [5] came to 2.86 and the chromatographic logP under setting [4] was 2.86.
In turn, `CC1(C)COc2c(-c3ccnc(NC(=O)C4CC4)c3)c(-c3ccc(F)cc3)nn2C1` [Example 108] registered a LogP under setting [1] of 2.08.
On to `Oc1cc(-c2ccc(F)cc2F)n[nH]1` [[VII-3], 3-(2,4-difluorophenyl)-1H-pyrazol-5-ol], for which the chromatographic logP under setting [4] was 1.25.
Turning to `O=C(Cn1cncn1)Nc1cc(-c2c(-c3ccc(F)cc3)nn3c2OCCC3)ccn1` [Example 137], under setting [2], the LogP is reported as 1.32.
As for `C[C@@H]1C[C@@H](C)n2nc(-c3ccc(F)cc3)c(Br)c2O1` (racemic) [[IV-9a], rac-trans-3-bromo-2-(4-fluorophenyl)-5,7-dimethyl-6,7-dihydro-5H-pyrazolo[5,1-b][1,3]oxazine], the chromatographic logP was determined as 3.91 under setting [5] and 3.91 under setting [4].
On to `O=C(Nc1cc(-c2c(-c3ccc(F)cc3)nn3c2OCCC3)ccn1)C1(C2CC2)CC1` [Example 129], for which the LogP under setting [2] worked out at 2.46.
`CC(C)C(=O)Nc1cc(-c2c(-c3ccc(F)cc3)nn3c2OCC(C)(C#N)C3)ccn1` (stereo not shown) [Example 107] displayed a LogP under setting [1] of 1.94.
`O=C(Nc1cc(-c2c(-c3ccc(F)cc3)nn3c2OCCC3)ccn1)C1CC=CC1` [Example 125]: the LogP under setting [2] was determined as 1.76.
Same read-out and setting: the result for `CC(C)(F)C(=O)Nc1cc(-c2c(-c3ccc(F)cc3)nn3c2OCCC3)ccn1` [Example 115] reads 2.38; that for `CC(C)=NOCC(=O)Nc1cc(-c2c(-c3ccc(F)cc3)nn3c2OCCC3)ccn1` [Example 122], 2.13.
With `Fc1ccc(-c2nn3c(c2Br)OCC(F)(F)C3)cc1` [[IV-7], 3-bromo-6,6-difluoro-2-(4-fluorophenyl)-6,7-dihydro-5H-pyrazolo[5,1-b][1,3]oxazine], the chromatographic logP under setting [5] is 3.3 and the chromatographic logP under setting [4] was 3.3.
Consider `Nc1cc(-c2c(-c3ccc(F)cc3F)nn3c2OCCC3)ccn1` [[II-3], 4-[2-(2,4-difluorophenyl)-6,7-dihydro-5H-pyrazolo[5,1-b][1,3]oxazin-3-yl]pyridin-2-amine], for which the chromatographic logP reads like this: under setting [3], 1.01; under setting [4], 1.01.
Consider `CC[C@H](C)CC(=O)Nc1cc(-c2c(-c3ccc(F)cc3)nn3c2OCCC3)ccn1` [Example 131], for which, under setting [2], the lipophilicity (LogP) was 2.1.
`Cc1occc1C(=O)Nc1cc(-c2c(-c3ccc(F)cc3)nn3c2OCCC3)ccn1` [Example 126]: the lipophilicity (LogP) under setting [2] amounted to 1.96.
Consider `Fc1ccc(-c2nn3c(c2Br)OCC3)cc1` [[IV-4], 7-bromo-6-(4-fluorophenyl)-2,3-dihydropyrazolo[5,1-b][1,3]oxazole], for which the chromatographic logP was 2.69 under setting [5] and 2.69 under setting [4].
Under setting [2], `CC(=O)CCCC(=O)Nc1cc(-c2c(-c3ccc(F)cc3)nn3c2OCCC3)ccn1` [Example 99] gave a LogP of 1.35.
For the compound `O=C(CC1CCCOC1)Nc1cc(-c2c(-c3ccc(F)cc3)nn3c2OCCC3)ccn1` (stereo not shown) [Example 124], the LogP under setting [2] is recorded as 1.57.
In turn, `CCC(=O)N(C)c1cc(-c2c(-c3ccc(F)cc3)nn3c2N(C(=O)CC)CCC3)ccn1` [Example 93] returned a LogP under setting [1] of 2.05.
`O=C(Nc1cc(-c2c(-c3ccc(F)cc3)nn3c2OCCC3)ccn1)c1ccc(F)s1` [Example 130] displayed a LogP under setting [2] of 2.42.
Consider `Fc1ccc(-c2nn3cccnc3c2Br)cc1` [[XXXVII-2], 3-Bromo-2-(4-fluorophenyl)pyrazolo[1,5-a]pyrimidine], for which the chromatographic logP turned out to be 2.8 under setting [5] and 2.8 under setting [4].
Regarding `CC1CCOc2c(Br)c(-c3ccc(F)cc3)nn21` (stereo not shown) [[IV-6], 3-bromo-2-(4-fluorophenyl)-7-methyl-6,7-dihydro-5H-pyrazolo[5,1-b][1,3]oxazine], the chromatographic logP under setting [5] worked out at 3.36 and the chromatographic logP under setting [4] worked out at 3.36.
For the compound `Fc1ccc(-c2nn3ccoc3c2Br)cc1` [[IV-a-3], 7-bromo-6-(4-fluorophenyl)pyrazolo[5,1-b][1,3]oxazole], the chromatographic logP runs as follows: under setting [5], 3.07; under setting [4], 3.07.

Source of the values: patent US9023844B2, “Heterocyclylpyri (mi) dinylpyrazole as fungicidals” (Bayer Intellectual Property GmbH, priority 2011, dated 2015).
